The source of these data is ChEMBL document CHEMBL4393657, “Tetrazole hybrids and their antifungal activities” (2019).

Holding throughout (assay type): functional
In assay [1] the test system is Candida albicans. In words: Antifungal activity against Candida albicans assessed as reduction in fungal cell growth incubated for 24 and 72 hrs by cup plate method.
Assay [2] relates to Fusarium oxysporum. Put plainly: Antifungal activity against Fusarium oxysporum assessed as reduction in fungal cell growth incubated for 24 and 72 hrs by cup plate method.
Assay [3] concerns Aspergillus flavus. In words: Antifungal activity against Aspergillus flavus assessed as reduction in fungal cell growth incubated for 24 and 72 hrs by cup plate method.
Assay [4] relates to Candida albicans. Put plainly: Antifungal activity against Candida albicans NCCS 3471 assessed as inhibition zone at 50 ug/ml incubated for 3 to 4 days by disk diffusion method. As to conditions: read-out: IZ. (In general: A growth-free zone around the sample is the usual read-out of agar diffusion tests.)
Assay [5] deals with Aspergillus fumigatus. Put plainly: Antifungal activity against Aspergillus fumigatus NCIM 902 assessed as inhibition zone at 50 ug/ml incubated for 3 to 4 days by disk diffusion method. The following applies: read-out: IZ.
In assay [6] the test system is Candida albicans. In words: In vivo antifungal activity against Candida albicans TA infected in CDF-1 mouse dosed orally assessed as survival of mouse. As to conditions: po.
The test system of assay [7] is Candida albicans. In words: Antifungal activity against Candida albicans assessed as reduction in fungal cell growth incubated for 48 hrs by broth microdilution susceptibility method.
The subject of assay [8] is Aspergillus niger. Put plainly: Antifungal activity against Aspergillus niger assessed as inhibition zone at 250 ug/ml. The following applies: read-out: IZ.
The subject of assay [9] is Candida albicans. In words: Antifungal activity against Candida albicans assessed as inhibition zone at 250 ug/ml. As to conditions: read-out: IZ.
Assay [10] concerns Candida albicans. Put plainly: Antifungal activity against Candida albicans TA.

Converted amounts (≈) assume the structure as drawn. A value given as a limit tells only on which side of the number the result lay.

In the case of `Oc1ccc(Br)cc1C1=NNC(c2cc3ccccc3n3nnnc23)C1` (stereo not drawn), the minimum inhibitory concentration (MIC) in assay [1], in assay [2] and in assay [3] was 25 to 100 µg/mL (≈ 61.1 to 244 µM) throughout. `Clc1ccc(-n2nnnc2-c2cccnc2)cc1`: the zone of inhibition at 50 µg/mL in assay [4] and in assay [5] was 10 to 19 mm in each case. On to `C[C@@H](n1nnn(-c2ccc(OCC(F)(F)C(F)(F)F)cc2)c1=O)[C@](O)(Cn1cncn1)c1ccccc1`, for which, in [6], the median effective dose (ED50) (commonly the midpoint of the dose-response relation) was 0.71 to 2 mg/kg. In the case of `O=C1/C(=C/c2ccccc2)C(=O)N(c2ccc(Cl)cc2)C(=S)N1/N=C/c1cc2ccccc2n2nnnc12`, the MIC – broadly, the lowest concentration that inhibits growth of the organism – in assay [7] is at least 100 µg/mL. On to `Oc1cccc(-c2nnnn2-c2nc3ccccc3s2)c1`, for which the zone of inhibition at 250 µg/mL in assay [8] and in assay [9] was 13 to 23 mm in each case. Consider `Clc1cccc(-n2nnnc2-c2cccnc2)c1Cl`, for which the results for the zone of inhibition at 50 µg/mL in assay [4] and in assay [5] were 16 mm and 18 mm, respectively. `O=C1CC(=O)N(c2ccc(Cl)cc2)C(=S)N1/N=C/c1cc2ccccc2n2nnnc12`: the minimal inhibitory concentration (MIC) in assay [7] was at least 100 µg/mL. `O=C1/C(=C/c2ccccc2)C(=O)N(c2ccccc2)C(=S)N1/N=C/c1cc2ccccc2n2nnnc12`: the MIC in [7] was at least 100 µg/mL.

In the case of `O=C(/C=C/c1cc2ccccc2n2nnnc12)c1cc(Br)ccc1O`, the MIC in assay [1], in assay [2] and in [3] was 25 to 100 µg/mL (≈ 63.3 to 253 µM) each time.

`Cc1ccc2c(c1)cc(/C=C/C(=O)c1cc(Br)ccc1O)c1nnnn12`: the MIC in [1], in assay [2] and in assay [3] was 25 to 100 µg/mL (≈ 61.1 to 244 µM) each time. For `COc1cc(-c2nnnn2-c2nc3ccccc3s2)cc(OC)c1OC`, the zone of inhibition at 250 µg/mL in [8] and in assay [9] was 13 to 23 mm each time. In the case of `Cc1ccc2cc(/C=C/C(=O)c3cc(Br)ccc3O)c3nnnn3c2c1`, the minimum inhibitory concentration (MIC) in [1], in assay [2] and in assay [3] was 25 to 100 µg/mL (≈ 61.1 to 244 µM) throughout. Turning to `O=[N+]([O-])c1ccccc1-n1nnnc1-c1cccnc1`, the zone of inhibition at 50 µg/mL in assay [4] and in [5] was 10 to 19 mm in each case. Take `COc1ccc2cc(/C=C/C(=O)c3cc(Br)ccc3O)c3nnnn3c2c1`: the minimal inhibitory concentration (MIC) in [1], in [2] and in [3] was 25 to 100 µg/mL (≈ 58.8 to 235 µM) throughout. As to `CCOC(=O)C(C#N)C(c1cc2ccc(CC)cc2n2nnnc12)P(=O)(OCC)OCC` (stereo not drawn), the minimal inhibitory concentration (MIC) in assay [1], in assay [2] and in [3] was 10 to 25 µg/mL (≈ 21.8 to 54.4 µM) throughout.

With `C[C@@H](n1nnn(-c2ccc(OCC(F)(F)F)cc2)c1=O)[C@](O)(Cn1cncn1)c1ccccc1`, the ED50 in assay [6] lay within 0.71 to 2 mg/kg. The same measure, in the same setting: for `C[C@@H](n1nnn(-c2ccc(F)cc2)c1=O)[C@](O)(Cn1cncn1)c1ccccc1` the value was 0.71 to 2 mg/kg. In the case of `COc1cccc2c1cc(C1CC(c3cc(Br)ccc3O)=NN1)c1nnnn12` (stereo not drawn), the MIC in assay [1], in [2] and in [3] was 25 to 100 µg/mL (≈ 56.9 to 228 µM) each time. As for `CN(C)c1ccc(/C=C2/C(=O)N(/N=C/c3cc4ccccc4n4nnnc34)C(=S)N(c3ccccc3)C2=O)cc1`, the MIC in assay [7] is at least 100 µg/mL.

Consider `COc1ccc2c(c1)cc(/C=C/C(=O)c1cc(Br)ccc1O)c1nnnn12`, for which the minimal inhibitory concentration (MIC) in assay [1], in [2] and in [3] was 25 to 100 µg/mL (≈ 58.8 to 235 µM) in each case. The molecule `C[C@@H](n1ncnn1)[C@](O)(Cn1cncn1)c1ccccc1F` showed an MIC in assay [10] of 100 µg/mL (≈ 330 µM). As to `O=[N+]([O-])c1ccc(-c2nnnn2-c2nc3ccccc3s2)cc1`, the zone of inhibition at 250 µg/mL in assay [8] and in assay [9] was 13 to 23 mm throughout. Turning to `CN(C)c1ccc(-c2nnnn2-c2nc3ccccc3s2)cc1`, the zone of inhibition at 250 µg/mL in assay [8] and in assay [9] was 13 to 23 mm throughout.

Take `CCOC(=O)C(C#N)C(c1cc2ccccc2n2nnnc12)P(=O)(OCC)OCC` (stereo not drawn): the MIC in [1], in assay [2] and in [3] was 10 to 25 µg/mL (≈ 23.2 to 58 µM) throughout.

Take `Cc1ccc(-c2nnnn2-c2nc3ccccc3s2)cc1`: the zone of inhibition at 250 µg/mL in assay [8] and in assay [9] was 13 to 23 mm throughout. Turning to `Oc1ccc(-c2nnnn2-c2nc3ccccc3s2)cc1O`, the zone of inhibition at 250 µg/mL in assay [8] and in assay [9] was 13 to 23 mm in each case. Regarding `S=C1N=C(c2ccc(Cl)cc2)CC(c2cc3ccccc3n3nnnc23)N1` (stereo not drawn), the MIC in [7] was at least 100 µg/mL. Take `c1ccc(-n2nnnc2-c2cccnc2)cc1`: the zone of inhibition at 50 µg/mL in assay [4] and in assay [5] was 10 to 19 mm throughout. Take `O=[N+]([O-])c1ccc(-n2nnnc2-c2cccnc2)cc1`: the zone of inhibition at 50 µg/mL in assay [4] and in assay [5] was 10 to 19 mm throughout. On to `Cc1ccc(N2C(=O)/C(=C\c3ccccc3)C(=O)N(/N=C/c3cc4ccccc4n4nnnc34)C2=S)cc1`, for which, in [7], the MIC was at least 100 µg/mL.

Turning to `CCOC(=O)C(C#N)C(c1cc2c(OC)cccc2n2nnnc12)P(=O)(OCC)OCC` (stereo not drawn), the minimum inhibitory concentration (MIC) in assay [1] is 10 µg/mL (≈ 21.7 µM); in assay [2] it was 10 to 25 µg/mL (≈ 21.7 to 54.2 µM); in [3], 10 µg/mL (≈ 21.7 µM). Regarding `C[C@@H](n1nnn(-c2ccc(C(F)(F)F)cc2)c1=O)[C@](O)(Cn1cncn1)c1ccccc1`, the ED50 in assay [6] was 0.71 to 2 mg/kg.
